Measurements: patent publication US20060052435A1, “Selective dopamin d3 receptor agonists for the treatment of sexual dysfunction” (priority 2001, published 2006)
Where two headings read alike, the source gives them in different places.

Legend:
[1] = target: human dopamine D2 long receptor (Homo sapiens, UniProt P14416)
[2] = target: human recombinant D2short (hD2s) receptors (Homo sapiens, UniProt P14416); assay: inhibition of binding of [3H]-spiperone; details: n = 3-11
ferrets = assay: 7-OH-DPAT-induced emesis in the ferret; assay type: in vivo; details: for Antagonist potency ED100 versus 7-OH-DPAT-induced emesis: s.c., minimum dose completely inhibiting emesis in all animals, n = 3
[3] = ferret, in vivo, sc
telemetry rats = assay: rat telemetry model of erection (intracavernosal pressure); assay type: in vivo; details: for proerectile effect (words): male models of erection / telemetry rats, agonist alone; for agonist-induced erectile activity with concomitant L-741,626 and SB-277,011: L-741,626 2 mg/kg s.c. and SB-277,011 3 mg/kg s.c.
Method: Erectile responses were recorded by measuring intracavernosal pressure and/or clitoral/vaginal blood flow using surgically implanted telemetric device. The specific details of the surgical procedures, data acquisition and analysis can be found in detail in Bernabe J, Rampin O, Sachs B D, Giuliano F. Intracavernous pressure during erection in rats: an integrative approach based on telemetric recording. Am. J. Physiol.

anaesthetised dog [4] = assay: haemodynamics in the anaesthetised dog; assay type: in vivo
Description: Male beagles were anaesthetised with a mixture of chloralose and urethane, following pre-medication with piritramide. They were instrumented to measure arterial blood pressure, cardiac output, E.C.G., pudendal artery blood flow (PAF) and intra-cavernosal pressure (ICP). Other parameters such as heart rate and vascular resistance were derived from the primary signals. Following a period of equilibration, a series of control readings were taken and the effects of pelvic nerve stimulation at 4 and 8 Hz, on ICP and PAF were measured. Compounds were administered subcutaneously in the dorsal neck region via an implanted catheter, in the dose range of 0.3-3000 μg(base)/kg. Following each dose, parameters were measured at fixed intervals for 30 min.
Results were analysed as percent change from the final control values for each dog and mean values for three dogs were used.

New Zealand rabbits = assay: male and female anaesthetised rabbit, pelvic nerve stimulation; assay type: in vivo
Method: 1.1.1 Male and Female Anaesthetised Rabbit Methodology
Male and female New Zealand rabbits (˜2.5 kg) were pre-medicated with a combination of Medetomidine (Domitor®) 0.5 ml/kg i.m., and Ketamine (Vetalar®) 0.25 ml/kg i.m. whilst maintaining oxygen intake via a face mask. The rabbits were tracheotomised using a Portex™ uncuffed endotracheal tube 3 ID., connected to ventilator and maintained at a ventilation rate of 30-40 breaths per minute, with an approximate tidal volume of 18-20 ml, and a maximum airway pressure of 10 cm H2O. Anaesthesia was then switched to Isoflurane and ventilation continued with O2 at 2 l/min. The right marginal ear vein was cannulated using a 23 G or 24 G catheter, and Lactated Ringer solution perfused at 0.5 ml/min. The rabbit was maintained at 3% Isoflurane during invasive surgery, dropping to 2% for maintenance anaesthesia. The left jugular vein was exposed, isolated and then cannulated with a PVC catheter (17 G) for the infusion of drugs and compounds.
The left groin area of the rabbit was shaved and a vertical incision was made approximately 5 cm in length along the thigh. The femoral vein and artery were exposed, isolated and then cannulated with a PVC catheter (17 G) for the infusion of drugs and compounds. Cannulation was repeated for the femoral artery, inserting the catheter to a depth of 10 cm to ensure that the catheter reached the abdominal aorta. This arterial catheter was linked to a Gould system to record blood pressure. Samples for blood gas analysis were also taken via the arterial catheter. Systolic and diastolic pressures were measured, and the mean arterial pressure calculated using the formula (diastolic×2+systolic)÷3. Heart rate was measured via the pulse oxymeter and Po-ne-mah data acquisition software system (Ponemah Physiology Platform, Gould Instrument Systems, Inc.).
A ventral midline incision was made into the abdominal cavity. The incision was about 5 cm in length just above the pubis. The fat and muscle was bluntly dissected away to reveal the hypogastric nerve which runs down the body cavity. It was essential to keep close to the side curve of the pubis wall in order to avoid damaging the femoral vein and artery which lie above the pubis. The sciatic and pelvic nerves lie deeper and were located after further dissection on the dorsal side of the rabbit. Once the sciatic nerve is identified, the pelvic nerve was easily located. The term pelvic nerve is loosely applied; anatomy books on the subject fail to identify the nerves in sufficient detail. However, stimulation of the nerve causes an increase in vaginal and clitoral blood flow in females and in intracavernosal pressure and cavernosal blood flow in males, and innervation of the pelvic region. […]

[5] = target: D3 receptors over D2 receptors (Homo sapiens, UniProt P35462); details: GTPγS assay; cited from earlier work
[6] = unbound plasma and whole brain concentrations in anaesthetised ferrets; details: s.c. dosing at the ED100 dose, n = 1
[7] = target: human recombinant D3 (hD3) receptors (Homo sapiens, UniProt P35462, G9S); assay: inhibition of binding of [3H]-R(+)-7-OH-DPAT; details: n = 3-11
D2 [8] = target: T1, D2 (Homo sapiens, UniProt P14416); details: quoted abstract; cited from earlier work
D1 receptor = D1 receptor (Homo sapiens, UniProt P21728); details: quoted abstract; cited from earlier work
[9] = system: ovariectomized, partially hormone-repleted female rats; details: 50 ug/kg P.O., 15-30 min after dosing; from 22+/−8%; cited from earlier work
male rhesus monkeys = details: 20 and 50 ug/kg P.O., evaluated for 4 hr; cited from earlier work
dopamine D3 receptor = dopamine D3 receptor (Homo sapiens, UniProt P35462); assay: cell-based
D3 = D3 (Homo sapiens, UniProt P35462); details: WO 93/23035; cited from earlier work
D2 [10] = target: T1, D2; details: WO 93/23035; cited from earlier work
anaesthetised dog [11] = assay: emesis in the chloralose anaesthetised dog; details: male, beagle, dog, in vivo, sc, 30 min
Method: Male beagles, 11-17 kg were used. Following an overnight fast, animals were anaesthetised with chloralose (80 mg kg^−1 i.v.), having first been injected with an anaesthetic dose of the short acting barbiturate, thiopentone (15 mg kg^−1 i.v.). Following tracheal intubation, which ensured a patent airway even during the expulsion phase of the emetic response, the left femoral vein and artery were cannulated for further administration of anaesthetic and for recording haemodynamic parameters, respectively. […] During the stabilisation period, respiratory rate was monitored to ensure that central respiratory centres were not deeply depressed, since the CNS efferent component of the emetic reflex is essentially conveyed via respiratory motor neurones. […] Animals were observed closely for 30 min post-dose and motor (e.g. swallowing, eye blinking, limb movements, changes in respiratory rate and depth, retching and vomiting) and haemodynamic changes noted and recorded. […] At the end of an experiment animals were sacrificed with an overdose of pentobarbitone.
Observations made on individual animals were used to determine the percentage of animals that retched when injected with a particular dose level of test compound. Percentage of animals retching was then used to construct a dose response curve and an ED50 value determined from the appropriate curve.

Sequence of human dopamine D2 long receptor (P14416 whole entry): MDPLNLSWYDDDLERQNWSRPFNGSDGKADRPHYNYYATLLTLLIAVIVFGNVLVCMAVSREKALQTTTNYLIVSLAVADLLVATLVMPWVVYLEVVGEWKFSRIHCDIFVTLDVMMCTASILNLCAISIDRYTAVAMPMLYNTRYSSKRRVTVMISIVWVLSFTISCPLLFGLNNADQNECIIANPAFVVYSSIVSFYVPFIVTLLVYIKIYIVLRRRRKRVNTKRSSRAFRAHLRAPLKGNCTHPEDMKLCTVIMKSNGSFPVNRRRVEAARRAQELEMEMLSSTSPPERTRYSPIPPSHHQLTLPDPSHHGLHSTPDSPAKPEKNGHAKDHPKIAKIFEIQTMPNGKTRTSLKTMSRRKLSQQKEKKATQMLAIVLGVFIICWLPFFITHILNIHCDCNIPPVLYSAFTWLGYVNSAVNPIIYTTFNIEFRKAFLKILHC
Sequence of human recombinant D2short (hD2s) receptors (P14416 1-414 isoform P14416-2): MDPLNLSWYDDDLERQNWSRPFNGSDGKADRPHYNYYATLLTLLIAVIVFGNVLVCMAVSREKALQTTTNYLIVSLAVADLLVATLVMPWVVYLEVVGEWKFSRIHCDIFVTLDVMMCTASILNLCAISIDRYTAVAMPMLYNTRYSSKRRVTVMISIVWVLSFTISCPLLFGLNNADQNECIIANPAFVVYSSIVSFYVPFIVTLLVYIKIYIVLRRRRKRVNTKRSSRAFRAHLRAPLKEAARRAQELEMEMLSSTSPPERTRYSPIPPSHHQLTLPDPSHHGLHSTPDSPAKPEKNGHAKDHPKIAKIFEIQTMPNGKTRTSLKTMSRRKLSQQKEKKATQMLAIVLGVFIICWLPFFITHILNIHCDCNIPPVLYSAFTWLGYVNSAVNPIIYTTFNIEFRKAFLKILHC
T1 sequence (P14416 whole entry): as the sequence (P14416 whole entry) above
Sequence of D3 (P35462 whole entry, species assumed): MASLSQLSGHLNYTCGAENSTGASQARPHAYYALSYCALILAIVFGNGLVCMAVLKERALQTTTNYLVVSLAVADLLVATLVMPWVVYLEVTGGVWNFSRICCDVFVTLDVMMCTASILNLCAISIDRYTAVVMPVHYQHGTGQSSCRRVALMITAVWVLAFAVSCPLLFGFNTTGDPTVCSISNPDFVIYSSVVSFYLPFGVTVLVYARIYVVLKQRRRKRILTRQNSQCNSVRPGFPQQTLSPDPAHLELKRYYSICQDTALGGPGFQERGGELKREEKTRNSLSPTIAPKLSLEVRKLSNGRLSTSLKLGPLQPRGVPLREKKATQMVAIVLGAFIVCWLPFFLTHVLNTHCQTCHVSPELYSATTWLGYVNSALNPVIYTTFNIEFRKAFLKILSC
Sequence of D3 receptors over D2 receptors (P35462 whole entry, species assumed): as above
Sequence of dopamine D3 receptor (P35462 whole entry, species assumed): as above
Sequence of human recombinant D3 (hD3) receptors (P35462 whole entry G9S): as the sequence (P35462 whole entry, species assumed) above, with G9S counted along it
Sequence of D1 receptor (P21728 whole entry): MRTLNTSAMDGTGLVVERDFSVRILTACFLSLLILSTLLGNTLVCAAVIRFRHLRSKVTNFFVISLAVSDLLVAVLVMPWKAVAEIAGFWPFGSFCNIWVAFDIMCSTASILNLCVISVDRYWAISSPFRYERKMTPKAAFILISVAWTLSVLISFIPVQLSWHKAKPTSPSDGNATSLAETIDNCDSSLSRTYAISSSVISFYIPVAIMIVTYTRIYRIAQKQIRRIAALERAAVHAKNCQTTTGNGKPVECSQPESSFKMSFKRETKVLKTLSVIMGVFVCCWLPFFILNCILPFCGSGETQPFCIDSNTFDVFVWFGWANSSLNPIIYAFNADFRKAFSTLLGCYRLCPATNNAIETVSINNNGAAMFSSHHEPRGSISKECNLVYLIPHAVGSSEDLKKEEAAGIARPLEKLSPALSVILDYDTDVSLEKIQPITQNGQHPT

CCCN1CCOC(c2cc(O)cc(O)c2)C1 (racemic) [Example 15a + 15b (racemate)]
EC50 [1]: > 10 µM

CCCN1CCOC(c2ccc(F)c(O)c2)C1 (racemic) [Example 23a + 23b (racemate)]
EC50 [1]: > 5 µM

CCCN1CCOC(c2cc(O)cc(O)c2)C1 (single isomer, unassigned) [Example 15a, R-5-(4-Propylmorpholin-2-yl)benzene-1,3-diol]
EC50 [1]: 1.75 µM

CCCN1CCOC(c2ccc(F)c(O)c2)C1 (single isomer, unassigned) [Example 23a, R-(+)-2-Fluoro-5-(4-propylmorpholin-2-yl)phenol]
EC50 [1]: > 5 µM

CCc1cc(Cl)c(OC)c(C(=O)NC[C@@H]2CCCN2CC)c1O [(S)-eticlopride]
Ki ([2]; read-out: Affinity estimates (pKi ± s.e.m.) hD2s (converted)): 0.000501 µM
Antagonist potency ED100 versus 7-OH-DPAT-induced emesis (ferrets): 0.03 mg/kg
Brain conc^n [3]: 377 ng/g

CN1CCc2cccc3c2[C@H]1Cc1ccc(O)c(O)c1-3 [Apomorphine]
proerectile effect (words) (telemetry rats): induce/enhance proerectile effects
Geometric mean ED30 (fall in TPR) (anaesthetised dog [4]; dog, in vivo): 11.7 μg/kg s.c.
cardiac output at the highest dose levels (anaesthetised dog [4]; dog, in vivo): approximately doubled
effect on cardiac output and heart rate (anaesthetised dog [4]; s.c.): increases in cardiac output and heart rate
effect on total vascular resistance (TVR; TPR) (anaesthetised dog [4]; s.c., doses up to 3000 μg/kg): reduction in total vascular resistance

CCCN(CCC)C1CCc2ccc(O)cc2C1 (stereo not shown) [Example 7-OH-DPAT]
agonist-induced erectile activity with concomitant L-741,626 and SB-277,011 (telemetry rats): abolishes all 7-OH-DPAT-induced erectile activity
proerectile effect (words) (telemetry rats): induce/enhance proerectile effects
emetic response, total retches and vomits (mean±s.e.m.) (ferrets; 0.1 mg/kg s.c., observed for 6 h, control animals): 78.0±9.0

CCCN1CCOC(c2ccc(O)c(C(N)=O)c2)C1 (stereo not shown) [Example 35, 2-Hydroxy-5-(4-propylmorpholin-2-yl)benzamide]
EC50 [1]: ~10.5 µM

CCCN1CCOC(c2ccc(O)c(N)c2)C1 (stereo not shown) [Example 37, 2-Amino-4-(4-propylmorpholin-2-yl)phenol]
EC50 [1]: > 100 µM

CCCN1CCO[C@H]2c3cc(C(N)=O)ccc3CC[C@@H]21 [Example S32504]
penile intracavernosal pressure and cavernosal blood flow in male rabbits (New Zealand rabbits): beneficially enhances
vaginal and clitoral blood flow in female rabbits (New Zealand rabbits): beneficially enhances
selectivity for D3 receptors over D2 receptors [5]: 251 fold

CCCN(CCC)[C@@H]1CCc2cc(CS(=O)(=O)c3ccc(OC)cc3)ccc2C1 [GR218231]
Brain conc^n [6]: 1670 ng/g
Plu/Ki hD2s (ratio of unbound plasma concentration to binding affinity) [6]: 1.3
Plu/Ki hD3 (ratio of unbound plasma concentration to binding affinity) [6]: 95
Affinity estimates (pKi ± s.e.m.) hD2s [2]: 6.8 ± 0.44
animals in which emesis was blocked (ferrets; highest dose of 10 mg/kg): ⅔
Antagonist potency ED100 versus 7-OH-DPAT-induced emesis (ferrets): >10 mg/kg

OC1(c2ccc(Cl)cc2)CCN(Cc2c[nH]c3ccccc23)CC1 [L-741,626]
Brain conc^n [6]: 250 ng/g
Affinity estimates (pKi ± s.e.m.) hD3 [7]: 6.6 ± 0.24
Antagonist potency ED100 versus 7-OH-DPAT-induced emesis (ferrets): 3 mg/kg

CN[C@@H]1Cc2cccc3[nH]c(=S)n(c23)C1 [PNU-142774E]
Ki (D2 [8]): 0.007 µM
Ki (D1 receptor): > 7 µM
lordosis/mounts ratio (L/M) [9]: 65+/−10%
non-contact sexual behavior (erections, masturbation) (male rhesus monkeys): increase in sexual behavior

CCCNC1CCc2nc(N)sc2C1.Cl.Cl (stereo not shown) [Pramipexole, 2-amino-4,5,6,7-tetrahydro-6-propylamino-benzthiazole-dihydrochloride]
agonist-induced erectile activity with concomitant L-741,626 and SB-277,011 (telemetry rats): abolishes all pramipexole-induced erectile activity
No of erectogenic events/15 min (telemetry rats; Pramipexole 0.1 μg/kg s.c.): 2.8 ± 0.2 n = 5 erectogenic events/15 min
proerectile effect (words) (telemetry rats): induces a proerectile effect
proerectile effect (words) (telemetry rats; listed as pramipexole): induce/enhance proerectile effects
EC50 (dopamine D3 receptor): 0.00062 µM

CCCN1CCC[C@@H]2Cc3nc(N)ncc3C[C@H]21 [Quinelorane]
EC50 [1]: 0.0061 µM

CCCN(CCC)CCc1cccc2c1CC(=O)N2 [Ropinirole]
binding D3 (D3): 69 nM
EC50 [1]: 0.0161 µM
binding D2 (D2 [10]): 1380 nM

c1ccc(N2CCN(C[C@H]3CC[C@H](Nc4ncccn4)CC3)CC2)cc1 [trans-[4-[(4-Phenylpiperazin-1-yl)methyl]cyclohexyl]-pyrimidin-2-ylamine]
erectogenic effect in the presence of selective D2 receptor antagonist L-741,626 (telemetry rats; L-741,626 2 mg/kg s.c.): abolished
proerectile effect (words) (telemetry rats): produced erections
dose at which emesis was observed (anaesthetised dog [11]): 0.1 mg/kg
EC50 [1]: 0.0038 µM
Geometric mean ED30 (fall in TPR) (anaesthetised dog [4]; dog, in vivo): 44.6 μg/kg s.c.
cardiac output at the highest dose levels (anaesthetised dog [4]; dog, in vivo): approximately doubled
effect on cardiac output and heart rate (anaesthetised dog [4]; dog, in vivo, sc): increases in cardiac output and heart rate
